Reference: patent EP4458916A1, “PHOTOCATALYTICALLY ACTIVE COATING COMPOSITION, METHOD FOR THE PRODUCTION THEREOF AND USE THEREOF” (priority 2023, dated 2024)
Like-named read-outs stand apart in the source and are kept apart here.

Columns and labels:
S.aureus = assay type: cell-based; conditions: for Log10 Reduktion Dunkelkontrolle 1 mM / Log10 Reduktion Dunkelkontrolle 2 mM: dark; for Log10 Reduktion Wirksamkeit 1 mM / Log10 Reduktion Wirksamkeit 2 mM: light
Bakterien [1] = test: Thermal ageing: bacteria test (ISO 22196) after accelerated ageing ASTM F1980-16 at 60°C for 4 weeks; assay type: cell-based; conditions: 4 h, beschleunigte Alterung 60°C, Rezeptur 2 (Borsäure) on Melamin, 2 mM
Source text: (§1) Die Bestimmung der antimikrobiellen Aktivität erfolgte nach einer modifizierten Version der ISO 22196:2011-08 ("Messung von antibakterieller Aktivität auf Kunststoff- und anderen porenfreien Oberflächen", Ausgabedatum: 2011-08).
(§2) Bei der Testdurchführung wurde ein dünner Flüssigkeitsfilm, in dem die Bakterien enthalten sind (1,25 x 10^4 /cm2), direkt auf die Probekörper (2,5 cm x 2,5 cm) aufgebracht. Direkt nach Beimpfung wurden von der Nullprobe die Bakterien von den Probekörperoberflächen mittels Ultraschall und Vortexen abgelöst und die Keimzahl (KBE (engl. CFU), Kolonie-bildende Einheit) bestimmt (t0-Wert). Ein weiterer Satz Nullproben und antimikrobiell ausgestatteter Proben wurden mit Bakterien im Flüssigkeitsfilm bei Raumtemperatur inkubiert. Nach 4 h wurden überlebende Bakterien von den Probekörperoberflächen mittels Ultraschall und Vortexen abgelöst und die Keimzahl bestimmt (t4-Wert).
(§3) Im Unterschied zu der in der ISO 22196:2011-08 beschriebenen Methode wurde das Inokulum nicht mit einer Folie abgedeckt und die Inkubationszeit von 24 auf 4 Stunden reduziert. Weiterhin wurden die Platten der Proben 3 und 4 mit Licht mit einer Intensität von 300 µW/cm2 belichtet.
Zur Beurteilung der Schicht auf Alterungsprozesse, wurde eine beschleunigte Alterung nach ASTM F1980-16 bei 60°C für 4 Wochen durchgeführt.
Der Bakterientest wurde in Anlehnung an ISO 22196 nach oben beschriebener Methode durchgeführt. Die Ergebnisse sind in der Tabelle 62 zusammengefasst. Tabelle 62: Mikrobiologische Wirksamkeit (log10 Reduktion) bei beschleunigter Alterung (60°C).

I. monocytoqenes = test: Bacteria test following modified ISO 22196, photodynamic effect of different photocatalysts in the SolGel coating on I. monocytoqenes; assay type: cell-based; conditions: Rezeptur 4 nach Beispiel 5 on Melamin; 4 h, dark
Source text: as §1, §2, §3
(§4) Der Bakterientest wurde in Anlehnung an ISO 22196 nach oben beschriebener Methode durchgeführt. Die Ergebnisse sind Tabelle 57a bis 57b dargestellt. Tabelle 57a: Photodynamische Wirkung verschiedener Katalysatoren in der SolGel Beschichtung gegen S.aureus

verschiedene Virenstämme = test: Virus test following ISO 21702, photodynamic effect of a SolGel coating on different virus strains; conditions: read-out: Log10 Reduktion Probe
Bakterien [2] = test: Photostability: bacteria test (ISO 22196) after simulated long-term illumination (18 mW/cm^2, 405 nm); assay type: cell-based; conditions: 4 h, Rezeptur 2 (Borsäure) on Melamin, 2 mM
Source text: as §1, §2, §3
Zur Bewertung der Photostabilität des Farbstoffs S-25a (2 mM) in der Beschichtung wurden beschichtete Flächen mit 18 mW/cm^2 (405 nm, ca. 200 Fache Raumlichtintensität, Zeitrafferversuch) bestrahlt. So wurde eine Echtzeit-Photostabilität von 2 Jahren simuliert.
Der Bakterientest wurde in Anlehnung an ISO 22196 nach oben beschriebener Methode durchgeführt. Die Ergebnisse sind in der Tabelle 61 zusammengefasst. Tabelle 61: Mikrobiologische Wirksamkeit nach simulierter Photobelastung für 1, 2, 3, 6, 12 und 24 Monate

[3] = Immersion test: binding / wash-out of photocatalysts from SolGel coatings (1 h deionised water, UV-VIS signal loss); assay type: physicochemical; conditions: Rezeptur 5 coating on glass, dye 10 bis 40 mM; 1 h deionised water pH 6 ± 1, 22 ± 3 °C; relative UV-VIS signal loss at absorption maximum
Procedure: Für alle Untersuchungen wurden nach Beispiel 8 beschichtete Glasträger verwendet.
Um das Auswaschen der verschiedenen Farbstoffe in den Sol-Gel-Beschichtungen zu beurteilen wurde ein Immersionstest in vollentsalztem Wasser mit einem pH-Wert von (6 ± 1) und einer Wassertemperatur von (22 ± 3) °C für eine Stunde durchgeführt. Dazu wurden zunächst Schichten (Rezeptur 5, Beispiel 4, aufgefüllt mit 3,0 mL 2-Propanol; sh. Tabelle 3) mit erhöhter Farbstoffkonzentration (10 bis 40 mM; um die notwendige Auflösung bei der dünnen Schicht zu erreichen) auf Glas-Objektträgern erzeugt. Diese wurden nach dem Ablüften bei Raumtemperatur (30 min) eine Stunde bei 60°C nachgehärtet. Anschließend wurden die Schichten direkt im UV-VIS-Spektrometer vermessen. Die Ausgangswerte (Absorptionsmaximum des jeweiligen Farbstoffs) sollten dabei zwischen 0,05 A.U. und 1,50 A.U. liegen.
Nach einer Stunde in VE-Wasser wurden die Prüfkörper getrocknet und erneut gemessen. Aus den beiden Messungen wurde ein relativer Signalverlust in Prozent bei dem farbstoffspezifischen Absorptionsmaximum bestimmt.
Dieser Immersionstest diente dazu, das Auswaschverhalten verschiedener Farbstoffe aus Beschichtungssystemen zu beurteilen. Weiter soll er dabei helfen, verschiedene Farbstoffklassen oder verschiedene Farbstoffderivate einer Farbstoffklasse bezüglich dieser Charakteristik miteinander zu vergleichen. Die Ergebnisse sind in den folgenden Tabellen sortiert nach Stoffgruppen zusammengefasst: […]

Bakterien [4] = test: Room light tests (Raumlichtversuche): antimicrobial efficacy at 10 µW/cm^2 for 24 h; assay type: cell-based; conditions: Farbstoff 5 mM, coating Rezeptur 3, Beispiel 2a (2,5 eq aqueous boric acid, 50 mM)
Procedure: Um die antimikrobielle Wirksamkeit in einem realen Szenario abzuschätzen, wurden sogenannte Raumlichtversuche durchgeführt. Dazu wurden die mit Bakterien versetzten Probenträger mit einer, für Innenräume repräsentativen Lichtintensität von 10 µW/cm^2 für einen Zeitraum von 24 h bestrahlt.
Herstellung der Beschichtung erfolgte gemäß Beispiel 2a (2,5 eq wässrige Borsäure, 50 mM), mit Rezeptur 3. Die Ergebnisse sind in der Tabelle 63 zusammengefasst. Tabelle 63: Antimikrobielle Wirksamkeit bei Raumlichtbedingungen

S. enterica = test: Bacteria test following modified ISO 22196, photodynamic effect of different photocatalysts in the SolGel coating on S. enterica; assay type: cell-based; conditions: Rezeptur 4 nach Beispiel 5 on Melamin, 4 h
Source text: as §1, §2, §3, §4

[5] = Rezeptur 2, Verdünnung mit IPA 1:2
[6] = Rezeptur 2, Verdünnung mit IPA 1:5
[7] = Rezeptur 2, Verdünnung mit IPA 1:8

## CC(C)(O)c1cc[n+](CC2=Cc3cccc4cccc(c34)C2=O)cc1 [S-25a]
S.aureus; [5]
  Log10 Reduktion Dunkelkontrolle 1 mM: 0,1±0,4
  Log10 Reduktion Dunkelkontrolle 2 mM: 0,0±0,0
  Log10 Reduktion Wirksamkeit 1 mM: 3,0±0,2
  Log10 Reduktion Wirksamkeit 2 mM: 3,3±0,5
S.aureus; [6]
  Log10 Reduktion Dunkelkontrolle 1 mM: 0,0±0,2
  Log10 Reduktion Dunkelkontrolle 2 mM: 0,1±0,1
  Log10 Reduktion Wirksamkeit 1 mM: 2,0±0,2
  Log10 Reduktion Wirksamkeit 2 mM: 2,8±0,2
S.aureus; [7]
  Log10 Reduktion Dunkelkontrolle 1 mM: 0,0±0,2
  Log10 Reduktion Dunkelkontrolle 2 mM: 0,0±0,1
  Log10 Reduktion Wirksamkeit 1 mM: 1,5±0,1
  Log10 Reduktion Wirksamkeit 2 mM: 2,7±0,6
Bakterien [1]; 0 Wo, dark, read-out: Log10 Reduktion nach 0 Wo, Dunkelkontrolle
  log reduction at 2000 µM: 0.1
Bakterien [1]; 0 Wo, read-out: Log10 Reduktion nach 0 Wo, Probe
  log reduction at 2000 µM: 3.9
Bakterien [1]; 1 Wo, dark, read-out: Log10 Reduktion nach 1 Wo, Dunkelkontrolle
  log reduction at 2000 µM: 0
Bakterien [1]; 1 Wo, read-out: Log10 Reduktion nach 1 Wo, Probe
  log reduction at 2000 µM: 3.8
Bakterien [1]; 2 Wo, dark, read-out: Log10 Reduktion nach 2 Wo, Dunkelkontrolle
  log reduction at 2000 µM: 0
Bakterien [1]; 2 Wo, read-out: Log10 Reduktion nach 2 Wo, Probe
  log reduction at 2000 µM: 3.4
Bakterien [1]; 3 Wo, dark, read-out: Log10 Reduktion nach 3 Wo, Dunkelkontrolle
  log reduction at 2000 µM: 0.3
Bakterien [1]; 3 Wo, read-out: Log10 Reduktion nach 3 Wo, Probe
  log reduction at 2000 µM: 3.3
Bakterien [1]; 4 Wo, dark, read-out: Log10 Reduktion nach 4 Wo, Dunkelkontrolle
  log reduction at 2000 µM: 0.4
Bakterien [1]; 4 Wo, read-out: Log10 Reduktion nach 4 Wo, Probe
  log reduction at 2000 µM: 2.8
I. monocytoqenes
  I. monocytoqenes Log10 Reduktion Dunkelkontrolle: 0,0±0,1
Verschiedene Virenstämme; 83 min
  log reduction at 2000 µM: 5.5
Verschiedene Virenstämme; Influenza A virus, H1N1, 83 min
  log reduction at 2000 µM: 3.8
Verschiedene Virenstämme; unidentified adenovirus, 83 min
  log reduction at 2000 µM: 2
Bakterien [2]; 2 Monate simulated, dark, read-out: Log10 Reduktion nach x Monaten simulierter Belastung: 2, Dunkelkontrolle
  log reduction at 2000 µM: 0.2
Bakterien [2]; 3 Monate simulated, dark, read-out: Log10 Reduktion nach x Monaten simulierter Belastung: 3, Dunkelkontrolle
  log reduction at 2000 µM: 0.2
Bakterien [2]; 24 Monate simulated, dark, read-out: Log10 Reduktion nach x Monaten simulierter Belastung: 24, Dunkelkontrolle
  log reduction at 2000 µM: 0.2
Bakterien [2]; pre-illumination 18 mW/cm^2, 405 nm, 0 Monate, read-out: Log10 Reduktion nach x Monaten simulierter Belastung: Start (0), Probe
  log reduction at 2000 µM: 4.7
Bakterien [2]; pre-illumination 18 mW/cm^2, 405 nm, 1 Monat simulated, read-out: Log10 Reduktion nach x Monaten simulierter Belastung: 1, Probe
  log reduction at 2000 µM: 4.6
Bakterien [2]; pre-illumination 18 mW/cm^2, 405 nm, 2 Monate simulated, read-out: Log10 Reduktion nach x Monaten simulierter Belastung: 2, Probe
  log reduction at 2000 µM: 4.3
Bakterien [2]; pre-illumination 18 mW/cm^2, 405 nm, 3 Monate simulated, read-out: Log10 Reduktion nach x Monaten simulierter Belastung: 3, Probe
  log reduction at 2000 µM: 4.2
Bakterien [2]; pre-illumination 18 mW/cm^2, 405 nm, 6 Monate simulated, read-out: Log10 Reduktion nach x Monaten simulierter Belastung: 6, Probe
  log reduction at 2000 µM: 4.3
Bakterien [2]; pre-illumination 18 mW/cm^2, 405 nm, 12 Monate simulated, read-out: Log10 Reduktion nach x Monaten simulierter Belastung: 12, Probe
  log reduction at 2000 µM: 4.3
Bakterien [2]; pre-illumination 18 mW/cm^2, 405 nm, 24 Monate simulated, read-out: Log10 Reduktion nach x Monaten simulierter Belastung: 24, Probe
  log reduction at 2000 µM: 4.3
[3]
  Verlust durch Auswaschen: 8%
Bakterien [4]; 24 h, dark control, read-out: Log10 Reduktion Dunkelkontrolle
  log reduction at 5000 µM: 1.1
Bakterien [4]; illuminated 10 µW/cm^2 for 24 h, read-out: Log10 Reduktion 24 h
  log reduction at 5000 µM: 2.6
S. enterica; 300 µW/cm2
  S. enterica Log10 Reduktion Probe: 2,5±0,4
S. enterica; dark
  S. enterica Log10 Reduktion Dunkelkontrolle: 0,0±0,1
